Patent US20090253669A1, “Substituted Sulfonamide Compounds” (GRUENENTHAL GmbH, priority 2008, published 2009)

Key:
[1] = molecular target: T1, human B1R receptor (hB1R) (Homo sapiens, UniProt P46663); assay: FLIPR Ca2+ assay on hB1R-transfected CHO K1 cells, antagonistic action; assay type: cell-based; details: CHO-K1, 10 μM test substance; agonist Lys-Des-Arg9-bradykinin 0.5 nM; % of maximum achievable inhibition; read-out: hB1R [10 μM] % inhibition
T1 construct: host or cells: CHO K1 cells
T1 sequence (P46663 1-353): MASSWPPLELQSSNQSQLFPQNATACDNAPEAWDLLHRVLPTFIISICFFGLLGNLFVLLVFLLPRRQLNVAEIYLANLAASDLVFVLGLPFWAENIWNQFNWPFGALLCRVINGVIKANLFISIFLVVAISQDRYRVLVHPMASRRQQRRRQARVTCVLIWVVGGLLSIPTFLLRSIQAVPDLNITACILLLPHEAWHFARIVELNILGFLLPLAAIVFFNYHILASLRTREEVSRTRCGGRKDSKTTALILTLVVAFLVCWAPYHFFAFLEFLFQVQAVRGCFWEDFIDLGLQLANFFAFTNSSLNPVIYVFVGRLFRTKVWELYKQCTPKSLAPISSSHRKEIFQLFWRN

[2] = molecular target: T2, B1R receptor of the rat (rB1R) (Rattus norvegicus, UniProt P97583); assay: FLIPR Ca2+ assay on rB1R-transfected CHO K1 cells, antagonistic action; assay type: cell-based; details: CHO-K1, 10 μM test substance; agonist Des-Arg9-bradykinin 100 nM; % of maximum achievable inhibition; read-out: rB1R [10 μM] % inhibition
T2 construct: host or cells: CHO K1 cells
T2 sequence (P97583 1-337): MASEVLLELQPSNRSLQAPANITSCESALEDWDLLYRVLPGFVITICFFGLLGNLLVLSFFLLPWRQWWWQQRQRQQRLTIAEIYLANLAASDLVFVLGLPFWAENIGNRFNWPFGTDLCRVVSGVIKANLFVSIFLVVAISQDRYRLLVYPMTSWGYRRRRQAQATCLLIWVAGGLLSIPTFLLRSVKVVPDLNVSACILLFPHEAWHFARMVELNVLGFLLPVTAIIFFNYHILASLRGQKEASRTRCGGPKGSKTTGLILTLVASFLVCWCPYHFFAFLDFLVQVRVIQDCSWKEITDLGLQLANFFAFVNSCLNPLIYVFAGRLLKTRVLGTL

Cc1cc(S(=O)(=O)N2CCCCC2CCC(=O)N(C)CC2CCC(Cc3ccccc3)(N3CCCC3)CC2)c(C)cc1Cl (centres unmarked) [Compound 129, N-((4-benzyl-4-(pyrrolidin-1-yl)cyclohexyl)methyl)-3-(1-(4-chloro-2,5-dimethylphenylsulfonyl)piperidin-2-yl)-N-methylpropanamide]
inhibition at 10 µM [1]: 104% | inhibition at 10 µM [2]: 52%
